In patent US8148354B2, “Use of 20(S)-protopanaxadiol in manufacture of antidepressants” (priority 2006, dated 2012):
Marks after values point to notes of the source that are not given here.

Tests used:
[1] = tested on: Reserpine-Induced Ptosis in Mice; test: Inhibition of reserpine-induced ptosis; assay type: in vivo, Kunming mice; conditions: reserpine 2 mg/kg i.p., 10 mice per group
Method: Fifty male Kunming mice, 8-9 weeks old and weighing 18-22 g, were randomly divided by weight into 5 groups, and administered by gavage a single dose of one of the drugs listed in Table 3 for 10 consecutive days. Sixty minutes after the last dose, mice were given an i.p. injection of reserpine (2 mg/kg). After 60 minutes, mice were put on a bracketed stand and observed for 2 minutes. The number of animals with at least one upper eyelid closed was recorded. Fisher's exact test was used for statistical analysis.

[2] = tested on: Reserpine-Induced Akinesia in Mice; test: Inhibition of akinesia induced by reserpine; assay type: in vivo, Kunming mice; conditions: reserpine 2.5 mg/kg i.p., 10 mice per group
Method: Fifty male Kunming mice, 8-9 weeks old and weighing 18-22 g, were randomly divided by weight into 5 groups, and administered by gavage a single dose of one of the drugs listed in Table 5 for 10 consecutive days. Sixty minutes after the last dose, mice were given a reserpine injection (2.5 mg/kg) delivered i. p. Sixty minutes later, mice were individually placed on the center of a round filter paper 7.5 cm in diameter. After a 30-sec observation, the number of animals that were still on the filter paper was recorded. Fisher's exact test was used for statistical analysis.

[3] = tested on: mice in the tail suspension test; test: Tail suspension test in mice; assay type: in vivo, Kunming mice; conditions: mean ± SD
From the text: Fifty male Kunming mice, 9-10 weeks old and weighing 22-24 g, were randomly divided by weight into 5 groups and administered by gavage a dose of one of the drugs listed in Table 6. Sixty minutes later, mice were individually suspended by the tail (1 cm from the tip) to a horizontal 1 cm-diameter PVC bar by use of the adhesive tape. The tail of mouse was thereby prevented from twisting. The PVC bar was placed overhead to suspend the mouse upside-down, keeping the head 5 cm above the table surface. To avoid interference, each mouse was partitioned by clapboard. […] T-test was used for statistical analysis.
Fifty male Kunming mice, 8-9 weeks old and weighing 18-22 g, were randomly divided by weight into 5 groups, and administered by gavage a dose of one of the drugs listed in Table 7 for 10 consecutive days. Sixty minutes after the last dose, mice were individually suspended by the tail (1 cm from the tip) from a horizontal 1 cm-diameter PVC bar using the adhesive tape. The tail of the mouse was thereby prevented from twisting. The PVC bar was placed overhead to suspend the mouse upside down, keeping the head 5 cm above the table surface. To avoid interference, each mouse was partitioned by clapboard.

[4] = tested on: monoamine neurotransmitter and its metabolite in cerebral tissues; test: Measure of cerebral neurotransmitters in rats wearing shackles (HPLC-ECD); assay type: in vivo, SD rats; conditions: shackle model rats, brain
From the text: (i) Modeling Method: Sixty male SD rats, 8-9 weeks old and weighing 200-250 g, were randomly divided into 6 groups and subjected to gavage once a day as shown in Table 9. On the first day, individually housed rats were fitted with a cylindrical plastic shackle-like device composed of two pieces of red organic glass 0.2 cm-thick and 4 cm in diameter. The device could be adjusted according to the size of the animals and was worn for 21 days.
Preparation of Cerebral Tissues: Rats were Sacrificed by Femoral Arterial Exsanguination, and whole brains were weighed after the cerebellum was excised and homogenized in 950 μl (0.1 mol/L) perchloric acid (containing 0.05% Na2EDTA) and 50 μl (2 μg/ml) of DHBA. This material was then centrifuged at 11,000 rpm/for 10 minutes and, 10 μl of the supernatant were taken for testing. Results were as follows: The amount of each neurotransmitter was shown as the wet weight (ng/g) in cerebral tissues.
Chromatographic conditions: Chromatography was performed with a Shimadzu HPLC system, which was equipped with an L-BCD-6A electrochemical detector (detection range: 0.1-500 nA), a chromatographic column of 5 μm, 200 mm×4.6 mm ID glassy carbon electrode; the flow rate employed was 1.2 ml/min, the operating voltage was +0.75 V; and oxygenation was maintained. An NP2000 workstation was used for data recording and processing (Intelligence Information Institute of Zhejiang University). The potential difference between the working electrode and reference electrode was 0.75 V. The mobile phase, prepared with deionized water and degassed, consisted of 0.1 mmol/L citric acid-0.1 mmol/L sodium acetate buffer at pH4.37 with 10% ethanol. A mixture of a B81.2 mmol/L ion pair and 1.3 mmol/L Di-n-butylamine was used after degasification of the G4 glass filler.
Preparation of standard solutions: The stock solutions were 2 μg/ml for DHBA and 20 μg/ml for NE, DA, DOPAC, 5-HT, 5-HIAA and HAV. Standard solution 6 was prepared by mixing 20 μl each of NE, DA, DOPAC, 5-HT, 5-HIAA and HAV, then 80 μl of 0.1 mM mmol/LHCLO4 were added. Standard solution 7 (100 ng/ml) was prepared by mixing 50 μl of standard solution 6, 50 μl DHBA and 900 μl 0.1 mmol/LHCLO4. Standard solution 7 (10 μl) was used for HPLC.

[5] = tested on: 5-HTP-Induced Tremors in Mice; test: L-5-HTP induced tremor testing of mice; assay type: in vivo, Kunming mice; conditions: 10 mice per group
Method: Seventy male Kunming mice, 8-9 weeks old and weighing 18-22 g, were randomly divided by weight into 7 groups and administered a single dose by gavage as shown in Table 13. […] Then, mice were individually put into cages (16×27 cm) and observed for 20 minutes. The number of animals with tremors was recorded. Fisher's exact test was used for statistical analysis.

[6] = tested on: Levodopa Behavior in Mice; test: Enhancement of the behavioral effects of levodopa on mice; assay type: in vivo, Kunming mice; conditions: 10 mice per group
Method: Seventy male Kunming mice, 8-9 weeks old and weighing 18-22 g, were randomly divided by weight […] into 7 groups and administered a single dose by gavage as shown in Table 14. Sixty minutes later, levodopa at a dose of 200 mg/kg (the maximal dose not inducing running in mice) was administered i. p. Then, mice were put into separate cages and observed for 30 minutes. The number of running mice was recorded. Fisher's exact test was used for statistical analysis.

[7] = tested on: NA Re-uptake; test: NA re-uptake test ([3H]-norepinephrine, corpus striatum homogenate); assay type: biochemical, SD rats

Structure (SMILES): CNCCC(Oc1ccc(C(F)(F)F)cc1)c1ccccc1 (stereo not drawn) [Fluoxetine, reference compound]
- Number of animals with at least one upper eyelid closed ([1]; 18 mg/kg × 10 i.g.): 4*
- Number of animals Remaining on the filter paper for 30 seconds ([2]; 18 mg/kg × 10 i.g.): 3**
- Cumulative immobility within 6 minutes ([3]; multiple dose 18 mg/kg × 10 i.g.): 59.10 ± 35.40 s
- Cumulative immobility within 6 minutes ([3]; single dose 18 mg/kg × 1 i.g.): 70.90 ± 23.11 s
- Concentration of monoamine neurotransmitter and its metabolite: 5-HIAA ([4]; 16 mg/kg × 21 i.g.): 8.42 ng/g nerve tissues
- Concentration of monoamine neurotransmitter and its metabolite: 5-HT ([4]; 16 mg/kg × 21 i.g.): 136.88 ± ng/g nerve tissues
- Concentration of monoamine neurotransmitter and its metabolite: DA ([4]; 16 mg/kg × 21 i.g.): 406.97 ng/g nerve tissues
- Concentration of monoamine neurotransmitter and its metabolite: DOPAC ([4]; 16 mg/kg × 21 i.g.): 21.53 ng/g nerve tissues
- Concentration of monoamine neurotransmitter and its metabolite: HAV ([4]; 16 mg/kg × 21 i.g.): 62.17 ± ng/g nerve tissues
- Concentration of monoamine neurotransmitter and its metabolite: NE ([4]; 16 mg/kg × 21 i.g.): 13.67 ± ng/g nerve tissues
- Number of running animals ([5]; 18 mg/kg × 1 i.g., with 5-HTP 200 mg/kg i.p.): 8***
- Number of running animals ([5]; 18 mg/kg × 1 i.g., without 5-HTP): 0
- Number of running animals ([6]; 18 mg/kg × 1 i.g., with levodopa 200 mg/kg i.p.): 7**
- Number of running animals ([6]; 18 mg/kg × 1 i.g., without levodopa): 0
- Amount of re-uptake ([7]; concentration 1 μg/ml): 4311.8 ± 733.8 dmp

Structure (SMILES): CC(C)=CCC[C@](C)(O)[C@H]1CC[C@]2(C)[C@@H]1[C@H](O)C[C@@H]1[C@@]3(C)CC[C@H](O)C(C)(C)[C@@H]3CC[C@]12C [20(S)-protopanaxadiol]
- Number of animals with at least one upper eyelid closed ([1]; 3.75 mg/kg × 10 i.g.): 9
- Number of animals with at least one upper eyelid closed ([1]; 7.5 mg/kg × 10 i.g.): 8
- Number of animals Remaining on the filter paper for 30 seconds ([2]; 3.75 mg/kg × 10 i.g.): 8
- Number of animals Remaining on the filter paper for 30 seconds ([2]; 7.5 mg/kg × 10 i.g.): 7
- Cumulative immobility within 6 minutes ([3]; single dose 3.75 mg/kg × 1 i.g.): 95.00 ± 36.21 s
- Cumulative immobility within 6 minutes ([3]; single dose 7.5 mg/kg × 1 i.g.): 92.30 ± 32.93 s
- Concentration of monoamine neurotransmitter and its metabolite: 5-HIAA ([4]; 3.33 mg/kg × 21 i.g.): 8.78 ng/g nerve tissues
- Concentration of monoamine neurotransmitter and its metabolite: DA ([4]; 3.33 mg/kg × 21 i.g.): 375.96 ng/g nerve tissues
- Concentration of monoamine neurotransmitter and its metabolite: DOPAC ([4]; 3.33 mg/kg × 21 i.g.): 21.57 ng/g nerve tissues
- Concentration of monoamine neurotransmitter and its metabolite: 5-HIAA ([4]; 6.67 mg/kg × 21 i.g.): 9.02 ng/g nerve tissues
- Concentration of monoamine neurotransmitter and its metabolite: 5-HT ([4]; 6.67 mg/kg × 21 i.g.): 113.18 ng/g nerve tissues
- Concentration of monoamine neurotransmitter and its metabolite: DA ([4]; 6.67 mg/kg × 21 i.g.): 401.67 ng/g nerve tissues
- Concentration of monoamine neurotransmitter and its metabolite: DOPAC ([4]; 6.67 mg/kg × 21 i.g.): 22.17 ng/g nerve tissues
- Concentration of monoamine neurotransmitter and its metabolite: HAV ([4]; 6.67 mg/kg × 21 i.g.): 56.37 ng/g nerve tissues
- Concentration of monoamine neurotransmitter and its metabolite: 5-HIAA ([4]; 13.33 mg/kg × 21 i.g.): 8.62 ng/g nerve tissues
- Concentration of monoamine neurotransmitter and its metabolite: 5-HT ([4]; 13.33 mg/kg × 21 i.g.): 102.81 ng/g nerve tissues
- Concentration of monoamine neurotransmitter and its metabolite: DA ([4]; 13.33 mg/kg × 21 i.g.): 394.41 ng/g nerve tissues
- Concentration of monoamine neurotransmitter and its metabolite: DOPAC ([4]; 13.33 mg/kg × 21 i.g.): 20.68 ng/g nerve tissues
- Concentration of monoamine neurotransmitter and its metabolite: HAV ([4]; 13.33 mg/kg × 21 i.g.): 53.19 ng/g nerve tissues
- Concentration of monoamine neurotransmitter and its metabolite: NE ([4]; 13.33 mg/kg × 21 i.g.): 11.04 ng/g nerve tissues
- Number of running animals ([5]; 3.75 mg/kg × 1 i.g., with 5-HTP 200 mg/kg i.p.): 2
- Number of running animals ([6]; 3.75 mg/kg × 1 i.g., with levodopa 200 mg/kg i.p.): 2
- Amount of re-uptake ([7]; concentration 0.01 μg/ml): 5347.8 ± 555.1 dmp
- Inhibitory rate ([7]; concentration 0.01 μg/ml): 4.4%
- Amount of re-uptake ([7]; concentration 0.1 μg/ml): 5137.2 ± 465.7 dmp
- Inhibitory rate ([7]; concentration 0.1 μg/ml): 8.2%
- Amount of re-uptake ([7]; concentration 1 μg/ml): 4950.6 ± 534.5 dmp
- Inhibitory rate ([7]; concentration 1 μg/ml): 11.5%
- Amount of re-uptake ([7]; concentration 10 μg/ml): 4690.1 ± 332.1 dmp
- Inhibitory rate ([7]; concentration 10 μg/ml): 16.2%
